Assay results as given in ChEMBL document CHEMBL1143982, “A comparative molecular field and comparative molecular similarity indices analyses (CoMFA and CoMSIA) of N-phenyl-N'-(2-chloroethyl)ureas targeting the colchicine-binding site as anticancer agents” (2008).

test system: HT-29; experiment: Antiproliferative activity against human HT29 cells; format: functional

Structure (SMILES) | GI50 [µM]
CC(C)c1ccc(NC(=O)NCCCl)cc1 | 5
O=C(NCCCl)Nc1ccc2c(c1)CCC2 | 10
CC[C@@H](CCl)NC(=O)Nc1ccc(I)cc1 | 51
O=C(NCCCl)Nc1ccc(Br)cc1 | 9
C[C@@H](CCl)NC(=O)Nc1ccc(C(C)(C)C)cc1 | 55
CCC(C)c1ccc(NC(=O)N[C@@H](CC)CCl)cc1 (stereo partly specified) | 109
CC(C)Cc1ccc(NC(=O)NCCCl)cc1 | 21
CCNC(=O)Nc1ccc(C(C)(C)C)cc1 | 83
C[C@@H](CCl)NC(=O)Nc1ccc(I)cc1 | 49
CCC(C)c1ccc(NC(=O)NCCCl)cc1 (stereo unspecified) | 3.6
CCC(C)c1ccc(NC(=O)N[C@H](C)CCl)cc1 (stereo partly specified) | 8.9
C[C@H](CCl)NC(=O)Nc1ccc2c(c1)-c1ccccc1C2 | 6.6
O=C(NCCCl)Nc1ccc2[nH]ncc2c1 | 48
CC[C@@H](CCl)NC(=O)Nc1ccc(C(C)C)cc1 | 54
CC[C@@H](CCl)NC(=O)Nc1ccc(C(C)(C)C)cc1 | 109
CCCCc1ccc(NC(=O)NCCCl)cc1 | 22
Cc1ccc(NC(=O)NCCCl)cc1 | 23
CCC(C)c1ccc(NC(=O)N[C@H](CC)CCl)cc1 (stereo partly specified) | 56
CC[C@H](CCl)NC(=O)Nc1ccc(C(C)(C)C)cc1 | 56
CCCc1ccc(NC(=O)NCCCl)cc1 | 23
CCc1ccc(NC(=O)NCCCl)cc1 | 6.4

Continued, values first:

GI50 [µM] | Structure (SMILES)
0.85 | C[C@H](CCl)NC(=O)Nc1ccc(I)cc1
400 | CNC(=O)Nc1ccc(C(C)(C)C)cc1
400 | CNC(=O)Nc1ccc(C(C)C)cc1
33 | CC(C)CCc1ccc(NC(=O)NCCCl)cc1
181 | C[C@@H](CCl)NC(=O)Nc1ccc2ccccc2c1
132 | CCNC(=O)Nc1ccc(C(C)CC)cc1 (stereo unspecified)
400 | CCC(C)c1ccc(NC(=O)NC)cc1 (stereo unspecified)
28 | C[C@@H](CCl)NC(=O)Nc1ccc2c(c1)-c1ccccc1C2
5.4 | Cc1ccc(NC(=O)NCCCl)cc1C
5.5 | O=C(NCCCl)Nc1ccc2ccccc2c1
400 | O=C(NCCCl)Nc1cccc2c1CCCC2
76 | CCCNC(=O)Nc1ccc(C(C)C)cc1
21 | CC(C)(C)c1ccc(NC(=O)NCCCCl)cc1
133 | CCCNC(=O)Nc1ccc(C(C)CC)cc1 (stereo unspecified)
13 | O=C(NCCCl)Nc1ccc2c(c1)-c1ccccc1C2
30 | CC[C@H](CCl)NC(=O)Nc1ccc(C(C)C)cc1
22 | CC[C@H](CCl)NC(=O)Nc1ccc(I)cc1

GI50 [µM] | Structure (SMILES)
20 | Cc1cc(C)cc(NC(=O)NCCCl)c1
36 | CC(C)(C)Cc1ccc(NC(=O)NCCCl)cc1
1.1 | CC(C)c1ccc(NC(=O)N[C@H](C)CCl)cc1
35 | CCCNC(=O)Nc1ccc(C(C)(C)C)cc1
14 | O=C(NCCCl)Nc1ccc(Cl)cc1
12 | CCCCCc1ccc(NC(=O)NCCCl)cc1
12 | CCCCCCc1ccc(NC(=O)NCCCl)cc1
69 | CC(C)c1ccc(NC(=O)N[C@@H](C)CCl)cc1
9.1 | CC(C)(C)c1ccc(NC(=O)NCCCl)cc1
100 | C[C@@H](CCl)NC(=O)Nc1ccc2c(c1)CCC2
4.9 | C[C@H](CCl)NC(=O)Nc1ccc2ccccc2c1
400 | CCNC(=O)Nc1ccc(C(C)C)cc1
3.9 | O=C(NCCCl)Nc1ccc(I)cc1
6.4 | C[C@H](CCl)NC(=O)Nc1ccc2c(c1)CCC2
8.9 | C[C@H](CCl)NC(=O)Nc1ccc(C(C)(C)C)cc1
54 | CCC(C)c1ccc(NC(=O)N[C@@H](C)CCl)cc1 (stereo partly specified)

test system: MDA-MB-231; experiment: Antiproliferative activity against human MDA-MB-231 cells; format: functional

Structure (SMILES) | GI50 [µM]
CCCCCCCCc1ccc(NC(=O)NCCCl)cc1 | 48
O=C(NCCCl)Nc1cccc2ccccc12 | 220
CCc1ccccc1NC(=O)NCCCl | 400

Results, then the molecule that gave them:

GI50 [µM] | Structure (SMILES)
587 | CCCCCCCCCCCc1ccc(NC(=O)NCCCl)cc1
587 | Cc1cc(C)c(NC(=O)NCCCl)c(C)c1
88 | Cc1cccc(NC(=O)NCCCl)c1
16 | CCc1cccc(NC(=O)NCCCl)c1
